We go through 2 substances from the OligoGym collection.

The target in this series is SOD1. The series can be described thus: mouse, dose not given. Conditions: ASO.

HELM strings list units from the 5' end as sugar, base in round brackets, then linkage (d deoxyribose, r ribose, m 2'-O-methyl, p phosphodiester). Strings are as the collection lists them; they lack the last nucleoside at the 3' end of the tested compound. [moe] = 2'-O-(2-methoxyethyl) (MOE); [sp] = phosphorothioate linkage; [m5C] = 5-methylcytosine

On to “RNA1{[moe]([m5C])[sp].[moe](A)p.[moe](G)[sp].[moe](G)p.[moe](A)[sp].d(T)[sp].d(A)[sp].d([m5C])[sp].d(A)[sp].d(T)[sp].d(T)[sp].d(T)[sp].d([m5C])[sp].d(T)[sp].d(A)[sp].[moe]([m5C])p.[moe](A)[sp].[moe](G)p.[moe]([m5C])}$$$$ (last 3' nucleoside missing)”, for which the 3 h FOB score came out at 1.25 score 0-7. Turning to “RNA1{[moe]([m5C])[sp].[moe]([m5C])[sp].[moe](G)[sp].[moe](T)[sp].[moe]([m5C])[sp].d(G)[sp].d([m5C])[sp].d([m5C])[sp].d([m5C])[sp].d(T)[sp].d(T)[sp].d([m5C])[sp].d(A)[sp].d(G)[sp].d([m5C])[sp].[moe](A)[sp].[moe]([m5C])[sp].[moe](G)[sp].[moe]([m5C])}$$$$ (last 3' nucleoside missing)”, the 3 h FOB score came out at 6.5 score 0-7.
